In ChEMBL document CHEMBL1212713, “Molecular docking and ligand specificity in fragment-based inhibitor discovery” (Nat Chem Biol, 2009):
Calls of active or inactive are those of the source.

Assay: Inhibition of beta lactamase AmpC assessed as hydrolysis of beta lactam by spectrometry analysis

Row | SMILES | Ki [µM]
1 | O=C(O)CN1C(=O)O[C@@H](c2ccccc2)C1=O | 3500

Assay: Inhibition of beta lactamase CTX-M assessed as hydrolysis of beta lactam up to 5 mM by spectrometry analysis

Row | SMILES | inhibition
2 | O=C1NC(=O)[C@H](Nc2ccccc2C(=O)O)S1 | inactive
3 | O=C(O)c1ccc(=O)[nH]n1 | inactive
4 | CC(=O)Nc1sccc1C(=O)O | inactive
5 | CCOC(=O)c1c(C(=O)O)[nH]c(C(=O)OCc2ccccc2)c1C | inactive
6 | C=C1C(=O)OC=C1C(=O)O | inactive
7 | Cc1ccc(N[C@H](CC(=O)c2ccccc2)C(=O)O)cc1C | inactive
8 | O=C(O)c1ccc(Cl)c(N2CCCC2=O)c1 | inactive
9 | Cc1cc(O)nc(O)c1C(=O)O | inactive
10 | CC(=O)Nc1nc(C(=O)O)cs1 | inactive
11 | O=C(O)c1cccc(-c2nc3ccccc3[nH]2)c1 | inactive
12 | O=C(O)c1sc(C(=O)O)c(-c2ccco2)c1-c1ccco1 | inactive
13 | CC(=O)Nc1ccc(OS(=O)(=O)c2cccc(C(=O)O)c2)cc1 | inactive
14 | C[C@H]1Cc2ccccc2N1C(=O)CSc1nnnn1C1CCCC1 | inactive
15 | O=C(O)CNC(=O)c1cccc2ccccc12 | inactive
16 | O=C(O)c1n[nH]c2c1CCC2 | inactive
17 | CC(=O)c1c(O)c(C(=O)O)c(C)oc1=O | inactive
18 | O=C(O)c1cnc(O)cc1O | inactive
19 | Cc1onc(C(N)=O)c1C(=O)Nc1nccs1 | inactive
20 | O=C(O)c1ccccc1C(=O)c1ccc2c(c1)CCC2 | inactive
21 | C[C@H](NC(=O)c1ccccc1Cl)C(=O)O | inactive
22 | O=C(O)C[C@@H](NC(=O)c1ccccc1F)c1ccc2c(c1)OCO2 | inactive
23 | O=C(O)Cc1ccccc1O | inactive
24 | O=C(O)c1cccc(S(=O)(=O)Nc2ccccn2)c1 | inactive
25 | C[C@@H](NC(=O)CNC(=O)CN)C(=O)O | inactive

Row | SMILES | inhibition
26 | Cc1[nH]c(C(=O)O)c(C)c1[C@H](C)O | inactive
27 | O=C(O)CN1C(=O)c2ccc(F)cc2C1=O | inactive
28 | O=C(O)[C@@H]1C[C@@H](C(=O)O)N1 | inactive
29 | O=C(O)[C@@H]1C[C@H]1C(=O)N1CCc2ccccc21 | inactive
30 | O=C(O)c1cn(S(=O)(=O)c2ccccc2)c2ccccc12 | inactive
31 | O=C(O)[C@@H]1CNC(Cc2ccc(Cl)cc2)=N1 | inactive
32 | Cc1ccc(NC(=O)/C=C/C(=O)O)cc1 | inactive
33 | O=C(O)c1cccc(N2C(=O)c3ccc(Br)cc3C2=O)c1 | inactive
34 | CC(=O)C1=C(O)C(O)N([C@@H](C)C(=O)O)[C@H]1c1ccccc1 (some centres not stated) | inactive
35 | O=C(CC1=NO[C@H](c2ccccc2O)N1)N1CCCC1 | inactive
36 | O=C(O)Cc1cc(=O)[nH]c2ccccc12 | inactive
37 | O=C(O)/C=C/c1ccc(O)cc1 | inactive
38 | O=C(O)[C@@H]1C(=O)NC[C@H]1c1ccccc1 | inactive
39 | O=C(O)c1ccccc1N[C@H](C(=O)O)c1ccccc1 | inactive
40 | CC(C)(C)c1ccc([C@@H](CC(=O)O)NC(=O)c2ccccc2F)cc1 | inactive
41 | NS(=O)(=O)c1cccc(C(=O)O)c1 | inactive
42 | C[C@H]1CCc2n[nH]c(C(=O)O)c2C1 | inactive
43 | Cc1cc(C)c2nc(CC(=O)O)[nH]c2c1 | inactive
44 | O=C(O)[C@@H](Cc1ccco1)P(=O)(O)CN1CCOCC1 | inactive
45 | O=C(O)C[C@@H]1C(=O)NC(=S)N1c1ccccc1 | inactive
46 | O=C(O)c1c[nH]c(=O)[nH]c1=O | inactive
47 | Cc1ccoc1C(=O)NCc1occc1C(=O)O | inactive
48 | O=C(O)c1cc(=O)c2cc(F)ccc2o1 | inactive
49 | O=C(O)[C@H]1[C@H](C(=O)NCCO)[C@H]2C=C[C@H]1C2 | inactive

Row | SMILES | inhibition
50 | Cc1oncc1C(=O)O | inactive
51 | CC(=O)NCC(=O)O | inactive
52 | O=C(O)Cn1cnc2ccccc21 | inactive
53 | O=C(O)c1cccc(S(=O)(=O)Nc2ccccc2O)c1 | inactive
54 | CCCOc1ccc([C@H](CC(=O)O)NC(=O)c2ccc(F)cc2)cc1 | inactive
55 | O=C(O)c1cc(=O)cc2n1CCNC2=O | inactive
56 | C[C@@H]1C[C@H](C)CN(S(=O)(=O)c2cccc(C(=O)O)c2)C1 | inactive
57 | Cc1ccc(NC(=O)[C@H]2CCC(=O)N2)c(C)c1 | inactive
58 | Cc1cc(C)cc(N2C[C@@H](C(=O)O)CC2=O)c1 | inactive
59 | C[C@@H](Oc1cc(O)c2c(=O)cc(-c3ccccc3)oc2c1)C(=O)O | inactive
60 | O=CNc1ccccc1C(=O)O | inactive
61 | Cc1ccc(-n2nc(C(N)=O)c(=O)cc2C)cc1 | inactive
62 | Cc1cc(C(=O)Nc2ccc(CC(=O)O)cc2)c(C)o1 | inactive
63 | O=C(O)c1ccnc([C@@H]2CCCCC2=O)c1 | inactive
64 | Cc1oc(S(=O)(=O)N2CCCCC2)cc1C(=O)O | inactive
65 | C=C(CC)N/N=C1\NC(=O)[C@H](CC(=O)O)S1 | inactive
66 | O=C(O)C[C@@H]1NC(=O)[C@H](Cc2ccccc2)NC1=O | inactive
67 | Cc1ccc(C(=O)NCC(=O)O)s1 | inactive
68 | O=C(O)[C@H]1C[C@H](O)CN1Cc1ccccc1 | inactive
69 | O=C(O)c1ccc(Cl)c(N2C(=O)c3ccccc3C2=O)c1 | inactive
70 | O=C1C=CC(=O)[C@@H]2CC=C[C@@H](C(=O)O)[C@H]12 | inactive
71 | CCC(=O)Nc1ccccc1C(=O)C(=O)O | inactive
72 | O=C(O)c1cccc(COc2ccc(CO)cc2)c1 | inactive
73 | CS(=O)(=O)c1cccc(C(=O)O)c1 | inactive

Row | SMILES | inhibition
74 | Cc1ccccc1C(=O)N[C@@H](C)C(=O)O | inactive
75 | O=C(O)CSc1nc(O)cc(O)n1 | inactive
76 | O=C1C[C@H](C(=O)O)c2ccccc21 | inactive
77 | Cc1ccc(NC(=O)CSc2nnc(CCC(=O)O)c(=O)[nH]2)cc1 | inactive
78 | O=C(O)C[C@H](NO)c1ccccc1 | inactive
79 | O=C(O)/C=C/c1ccc(O)c(O)c1 | inactive
80 | O=C(O)Cc1ccc(C(=O)c2cccs2)s1 | inactive
81 | CC(=O)Nc1ccc(Sc2ccccc2C(=O)O)c(C(=O)O)c1 | inactive
82 | N#Cc1ccsc1NC(=O)c1ccccn1 | inactive
83 | O=C1C=C(O)[C@@H](C(=O)O)[C@H](c2ccccc2)C1 | inactive
84 | O=C(O)CC(=O)Nc1ccccc1 | inactive
85 | O=C(O)c1ccc(=O)oc1 | inactive
86 | O=C(O)C[C@H](C(=O)NCc1ccccc1)c1ccccc1 | inactive
87 | O=C(O)[C@H]1CC(=O)N(C2CCCC2)C1 | inactive
88 | O=C(O)c1cccc(OCc2cn3ccccc3n2)c1 | inactive
89 | O=C(Nc1nncs1)c1ccccc1F | inactive
90 | O=C(O)C1CC(O)CN1 (configuration not stated) | inactive
91 | Cc1cc(C)cc(NC(=O)N(CCC(=O)O)Cc2ccccc2)c1 | inactive
92 | Cc1cc(C(=O)NCc2oc(C(C)(C)C)cc2C(=O)O)c(C)o1 | inactive
93 | O=C1C=CC(=O)C(c2cccc(C(=O)O)c2)=C1 | inactive
94 | O=C(Nc1nncs1)c1ccccc1O | inactive
95 | COc1ccc(C(=O)O)cc1S(=O)(=O)N1CCCCCC1 | inactive

Assay: Inhibition of beta lactamase CTX-M assessed as hydrolysis of beta lactam by spectrometry analysis

Row | SMILES | Ki [µM]
96 | O=C(O)CN1C(=O)O[C@@H](c2ccccc2)C1=O | 700
97 | Nc1sc2c(c1-c1nn[nH]n1)CCCC2 | 3000
98 | O=C(Nc1cccc(-c2nn[nH]n2)c1)[C@H](Sc1ccccc1)c1ccccc1 | 12
99 | c1ccc(COc2cccc(-c3nn[nH]n3)c2)cc1 | 1000
100 | O=C1C=C(S(=O)(=O)O)c2ccccc2C1=O | 1000
101 | Cn1cc(C(=O)Nc2cccc(-c3nn[nH]n3)c2)c2ccccc21 | 10
102 | O=C1C[C@H](S(=O)(=O)O)c2ccccc2C1=O | 700

Assay: Inhibition of beta lactamase CTX-M assessed as hydrolysis of beta lactam at 250 uM by spectrometry analysis

Row | SMILES | inhibition
103 | O=C(Nc1cccc(-c2nn[nH]n2)c1)[C@H](Sc1ccccc1)c1ccccc1 | Active
104 | O=C(Nc1cccc(-c2nn[nH]n2)c1)c1csc2c1CCCC2 | Active
105 | Cc1nc2cc(C(=O)Nc3cccc(-c4nn[nH]n4)c3)ccc2n1-c1ccccc1 | Active
106 | Cn1cc(C(=O)Nc2cccc(-c3nn[nH]n3)c2)c2ccccc21 | Active
107 | CC(=O)Nc1cc(NC(C)=O)cc(C(=O)Nc2cccc(-c3nn[nH]n3)c2)c1 | Active
